From patent US7348427B2, “Antipathogenic benzamide compounds” (Genesoft Pharmaceuticals, Inc., priority 2001, dated 2008)

Assays:
[1] = system: S. pneumoniae ATCC 49619; assay: MIC, NCCLS broth microdilution assay; format: cell-based, Streptococcus pneumoniae; settings: H = S. pneumoniae ATCC 49619
Protocol: (§1) Compounds according to this invention were screened for their in vitro activities against selected species of bacteria and fungi. The minimal inhibition concentration (MIC) of these compounds was determined using the National Committee for Clinical Laboratory Standards (NCCLS) broth microdilution assay in microtiter plates, as set forth in: (1) the guidelines of the National. Committee for Clinical Laboratory Standards (NCCLS) Document M7-A4 (NCCLS, 1997); (2) the guidelines of the National Committee for Clinical Laboratory Standards (NCCLS) Document M11-A4 (NCCLS, 1997); and (3) the guidelines and reference method of the National Committee for Clinical Laboratory Standards (NCCLS) Document M27-T (NCCLS, 1995). For antifungal assays, the method recommended in Murray, P R., 1995 Manual of Clinical Microbiology (ASM Press, Washington, D.C.), was employed.

[2] = system: Candida albicans (ATCC 38247); assay: Antifungal MIC assay; format: cell-based; settings: B = C. albicans ATCC 38247
Text: (§2) In vitro biological activity data were collected for a variety of microorganisms, including Bacillus cereus (ATCC 11778), Staphylococcus aureus (ATCC 27660, a methicillin resistant strain (MRSA); ATCC 13709, a methicillin sensitive strain (MSSA)); Streptococcus pneumoniae (ATCC 51422, a penicillin resistant strain (PRSP)), Enterococcus faecium (ATCC 51559, a vancomycin resistant strain (VRE)), and Staphylococcus epidermidis (ATCC 12228). Additionally, antifungal activity data were collected for Candida albicans (ATCC 38247).
as §1

[3] = system: E. faecalis ATCC 29212; assay: MIC, NCCLS broth microdilution assay; format: cell-based, Enterococcus faecalis; settings: C = E. faecalis ATCC 29212
Protocol: as §1

[4] = system: Staphylococcus aureus (ATCC 27660, a methicillin resistant strain (MRSA)); assay: MIC, NCCLS broth microdilution assay; format: cell-based; settings: F = S. aureus ATCC 27660
Text: as §2, §1

[5] = system: Bacillus cereus (ATCC 11778); assay: MIC, NCCLS broth microdilution assay; format: cell-based; settings: A = B. cereus ATCC 11778
Text: as §2, §1

[6] = system: Staphylococcus aureus (ATCC 13709, a methicillin sensitive strain (MSSA)); assay: MIC, NCCLS broth microdilution assay; format: cell-based; settings: E = S. aureus ATCC 13709
Text: as §2, §1

Row | SMILES | Minimum Inhibitory Concentration (MIC) [1] | Minimum Inhibitory Concentration (MIC) [2] [mg/L] | Minimum Inhibitory Concentration (MIC) [3] | Minimum Inhibitory Concentration (MIC) [4] | Minimum Inhibitory Concentration (MIC) [5] | Minimum Inhibitory Concentration (MIC) [6]
1 | CCN(CC)CCNC(=O)c1cc(NC(=O)c2cc(NC(=O)c3ccc(Cl)cc3F)c[nH]2)cn1C [Compound A-20] | +++ (+++ = MIC ≦ 4) | >32 | +++ (+++ = MIC ≦ 4) | ++ (++ = 4 < MIC < 12) | + (+ = 12 ≦ MIC ≦ 32) | ++ (++ = 4 < MIC < 12)
2 | Cn1cc(NC(=O)c2cc(NC(=O)c3ccc(Cl)cc3F)c[nH]2)cc1C(=O)NCCN1CCC(O)CC1 [Compound A-23] | +++ (+++ = MIC ≦ 4) | >32 | + (+ = 12 ≦ MIC ≦ 32) | + (+ = 12 ≦ MIC ≦ 32) | + (+ = 12 ≦ MIC ≦ 32) | + (+ = 12 ≦ MIC ≦ 32)
3 | Cn1cc(NC(=O)c2cc(NC(=O)c3cc(NC(=O)c4ccc(Cl)cc4F)c[nH]3)cn2C)cc1C(=O)NCCc1cccnc1 [Compound A-24] | +++ (+++ = MIC ≦ 4) | >32 | ++ (++ = 4 < MIC < 12) | +++ (+++ = MIC ≦ 4) | +++ (+++ = MIC ≦ 4) | >32 mg/L
4 | Cn1cc(NC(=O)c2cc(NC(=O)c3ccc(Cl)cc3F)c[nH]2)cc1C(=O)NCCc1ccncc1 [Compound A-25] | +++ (+++ = MIC ≦ 4) | >32 | +++ (+++ = MIC ≦ 4) | +++ (+++ = MIC ≦ 4) | ++ (++ = 4 < MIC < 12) | +++ (+++ = MIC ≦ 4)
5 | Cn1cc(NC(=O)c2cc(NC(=O)c3cc(NC(=O)c4cc(NC(=O)c5ccc(Cl)cc5F)c[nH]4)cn3C)cn2C)cc1C(=O)NCCN1CCOCC1 [Compound A-27] | +++ (+++ = MIC ≦ 4) | >32 | ++ (++ = 4 < MIC < 12) | + (+ = 12 ≦ MIC ≦ 32) | +++ (+++ = MIC ≦ 4) | + (+ = 12 ≦ MIC ≦ 32)
6 | Cn1cc(NC(=O)c2cc(NC(=O)c3cc(NC(=O)c4ccc(Cl)cc4F)c[nH]3)cn2C)cc1C(=O)NCCN1CCSC1 [Compound A-29] | +++ (+++ = MIC ≦ 4) | >32 | + (+ = 12 ≦ MIC ≦ 32) | ++ (++ = 4 < MIC < 12) | +++ (+++ = MIC ≦ 4) | +++ (+++ = MIC ≦ 4)
7 | Cn1cc(NC(=O)c2cc(NC(=O)c3cc(NC(=O)c4ccc(Cl)c(Cl)c4)c[nH]3)cn2C)cc1C(=O)NCCN1CCOCC1 [Compound A-30] | +++ (+++ = MIC ≦ 4) | >32 | +++ (+++ = MIC ≦ 4) | +++ (+++ = MIC ≦ 4) | +++ (+++ = MIC ≦ 4) | +++ (+++ = MIC ≦ 4)
8 | Cn1cc(NC(=O)c2cc(NC(=O)c3cc(NC(=O)c4ccc(F)cc4F)cn3C)cn2C)cc1C(=O)NCCCN1CCCCC1 [Compound B-4] | ++ (++ = 4 < MIC < 12) | >32 | ++ (++ = 4 < MIC < 12) | ++ (++ = 4 < MIC < 12) | ++ (++ = 4 < MIC < 12) | ++ (++ = 4 < MIC < 12)
9 | Cn1cc(NC(=O)c2cc(NC(=O)c3cc(NC(=O)c4ccc(F)cc4F)cn3C)cn2C)cc1C(=O)NCCN1CCCC1 [Compound B-5] | +++ (+++ = MIC ≦ 4) | >32 | +++ (+++ = MIC ≦ 4) | +++ (+++ = MIC ≦ 4) | +++ (+++ = MIC ≦ 4) | +++ (+++ = MIC ≦ 4)
10 | Cn1cc(NC(=O)c2cc(NC(=O)c3cc(NC(=O)c4ccc(F)cc4F)cn3C)cn2C)cc1C(=O)NCCCNC1CCCCC1 [Compound B-7] | +++ (+++ = MIC ≦ 4) | >32 | +++ (+++ = MIC ≦ 4) | +++ (+++ = MIC ≦ 4) | +++ (+++ = MIC ≦ 4) | +++ (+++ = MIC ≦ 4)
11 | Cn1cc(NC(=O)c2cc(NC(=O)c3cc(NC(=O)c4ccc(F)cc4F)cn3C)cn2C)cc1C(=O)NCCCN1CCOCC1 [Compound B-8] | ++ (++ = 4 < MIC < 12) | >32 | ++ (++ = 4 < MIC < 12) | ++ (++ = 4 < MIC < 12) | ++ (++ = 4 < MIC < 12) | ++ (++ = 4 < MIC < 12)
12 | Cn1cc(NC(=O)c2ccc(F)cc2F)cc1C(=O)Nc1cc(C(=O)Nc2cc(C(=O)OCCN3CCCCC3)n(C)c2)n(C)c1 [Compound B-9] | +++ (+++ = MIC ≦ 4) | >32 | +++ (+++ = MIC ≦ 4) | +++ (+++ = MIC ≦ 4) | +++ (+++ = MIC ≦ 4) | +++ (+++ = MIC ≦ 4)
13 | Cn1cc(NC(=O)c2ccc(F)cc2F)cc1C(=O)Nc1cc(C(=O)Nc2cc(C(=O)OCCN3CCOCC3)n(C)c2)n(C)c1 [Compound B-10] | +++ (+++ = MIC ≦ 4) | >32 | +++ (+++ = MIC ≦ 4) | + (+ = 12 ≦ MIC ≦ 32) | +++ (+++ = MIC ≦ 4) | + (+ = 12 ≦ MIC ≦ 32)
14 | C[C@@H]1CN(CCNC(=O)c2cc(NC(=O)c3cc(NC(=O)c4ccc(F)cc4F)cn3C)cn2C)C[C@H](C)O1 [Compound B-12] | +++ (+++ = MIC ≦ 4) | >32 | +++ (+++ = MIC ≦ 4) | +++ (+++ = MIC ≦ 4) | +++ (+++ = MIC ≦ 4) | ++ (++ = 4 < MIC < 12)
15 | CCN(CC)CCNC(=O)c1cc(NC(=O)c2cc(NC(=O)c3ccc(F)cc3F)cn2C)cn1C [Compound B-13] | +++ (+++ = MIC ≦ 4) | >32 | ++ (++ = 4 < MIC < 12) | + (+ = 12 ≦ MIC ≦ 32) | + (+ = 12 ≦ MIC ≦ 32) | ++ (++ = 4 < MIC < 12)
16 | Cn1cc(NC(=O)c2cc(NC(=O)c3ccc(F)cc3F)cn2C)cc1C(=O)NCCN1CCCCC1 [Compound B-14] | +++ (+++ = MIC ≦ 4) | >32 | +++ (+++ = MIC ≦ 4) | +++ (+++ = MIC ≦ 4) | ++ (++ = 4 < MIC < 12) | +++ (+++ = MIC ≦ 4)
17 | CN(C)CC(C)(C)CNC(=O)c1cc(NC(=O)c2cc(NC(=O)c3ccc(F)cc3F)cn2C)cn1C [Compound B-15] | + (+ = 12 ≦ MIC ≦ 32) | >32 | >32 mg/L | >32 mg/L | >32 mg/L | >32 mg/L
18 | Cn1cc(NC(=O)c2cc(NC(=O)c3ccc(F)cc3F)cn2C)cc1C(=O)NCCN1CCCC1 [Compound B-16] | +++ (+++ = MIC ≦ 4) | >32 | +++ (+++ = MIC ≦ 4) | ++ (++ = 4 < MIC < 12) | ++ (++ = 4 < MIC < 12) | ++ (++ = 4 < MIC < 12)
19 | Cn1cc(NC(=O)c2cc(NC(=O)c3cc(NC(=O)c4ccc(F)cc4F)cn3C)cn2C)cc1C(=O)NCCc1cccc[n+]1C [Compound B-17] | ++ (++ = 4 < MIC < 12) | >32 | + (+ = 12 ≦ MIC ≦ 32) | ++ (++ = 4 < MIC < 12) | +++ (+++ = MIC ≦ 4) | ++ (++ = 4 < MIC < 12)
